# Assay results from US20230241023A1, “STABILIZATION OF 1,2,4-TRIOXANE COMPOUNDS BY CHLOROGENIC ACIDS” (Artemiflow GmbH, priority 2020, published 2023).
# Assay: Stability of artemisinin in presence of additives (heating in aqueous solution with glucose, 1H NMR quantification)
# Format: physicochemical
# Conditions: glucose 1 mol equivalent, 93° C. for 90 minutes, open to the atmosphere
# Excerpt: Solvents were obtained from commercial suppliers and used without further purification. Dried leaves of Artemisia annua were obtained from ArtemiLife Corp. and Artemisinin was previously prepared and purified by crystallization using the protocols detailed in Horváth, Z.; Horosanskaia, E.; Lee, J. W.; Lorenz, H.; Gilmore, K.; Seeberger, P. H.; Seidel-Morgenstern, A. Recovery of Artemisinin from a Complex Reaction Mixture Using Continuous Chromatography and Crystallization. Org. Process Res. Dev. 2015, 19, 624-634. The Artemisinin crystals obtained thereby were ground prior to use.
# Ground coffee used in extractions was preground 100% Arabica beans from Café Intención. Coffee was prepared in a Rowenta C T 3818 Milano coffee maker using size 4 coffee filters (Melitta brand). Coffee beans (100% Arabica) were preground from. 100 g of ground coffee was added to the cone coffee filter in the machine and 1350 mL of water used to make the coffee using the single setting. Coffee was then transferred to a thermos, stored at room temperature, and used without further modification.
# Two solvents were tested, tap water and premade black coffee. […] All mixtures were heated to 93° C. for 90 minutes in 10 mL glass vials open to the atmosphere. Halfway through heating, 1-2 mL of tap water was added to compensate for evaporation. […]
structure (smiles),measurement,setting,value
C[C@@H]1CC[C@H]2[C@@H](C)C(=O)O[C@@H]3O[C@@]4(C)CC[C@@H]1[C@]32OO4 [artemisinin],clean loss of artemisinin (1H NMR),Example 1 (for comparison): 5 mL tap water,32%
same,clean loss of artemisinin (1H NMR),Example 2 (inventive): 5 mL premade black coffee (source of chlorogenic acids),19%
